From PubChem BioAssay AID2060899 (Molecular Pharmacology Branch, DTP, NCI, 2025)

System: 565726-208-R1-J5-PDC complex spheroids, growth inhibition
Assay: Anticancer human tumor 565726-208-R1-J5-PDC patient-derived pancreatic adenocarcinoma cell line growth inhibition [RAS]
Conditions: for IC50: curve of first compound; for viability, T/C: stronger effect = lower value
How it was run: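 Multi-cell-type spheroids: tumor cells plus HUVEC endothelial cells and mesenchymal stem cells. RAS-pathway inhibitors were combined with targeted agents, each dosed in half-log steps down from clinical Cmax, or from 10 microM when Cmax was unknown.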
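Note: spheroids exposed to compounds for seven days before readout.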
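Throughout, for viability, T/C: 100% = DMSO vehicle control viability.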

## CC1(C)CCC(Nc2ncc(C(F)(F)F)c(-c3c[nH]c4c(P(C)(C)=O)c(C#N)ccc34)n2)CN1 (configuration not stated) + C=CC(=O)N1CCN(c2nc(OCC3CCCN3C)nc3c(F)c(-c4nc(N)cc(C)c4C(F)(F)F)c(Cl)cc23)C(C)C1
Second compound 0.00316 µM
  IC50: 6.76 nM
Second compound 0.01 µM
  IC50: 7.74 nM
Second compound 0.0316 µM
  IC50: 5.42 nM
Second compound 0.1 µM
  IC50: 5.76 nM
Second compound 0.316 µM
  IC50: 6.16 nM
Second compound 1 µM
  IC50: 6.81 nM
Second compound 0.00316 µM, first compound 0.000949 µM
  viability, T/C: 133%
Second compound 0.00316 µM, first compound 0.003 µM
  viability, T/C: 73.7%
Second compound 0.00316 µM, first compound 0.00949 µM
  viability, T/C: 40.1%
Second compound 0.00316 µM, first compound 0.03 µM
  viability, T/C: 40.4%
Second compound 0.00316 µM, first compound 0.0949 µM
  viability, T/C: 41.2%
Second compound 0.00316 µM, first compound 0.3 µM
  viability, T/C: 37.3%
Second compound 0.01 µM, first compound 0.000949 µM
  viability, T/C: 136%
Second compound 0.01 µM, first compound 0.003 µM
  viability, T/C: 74.6%
Second compound 0.01 µM, first compound 0.00949 µM
  viability, T/C: 46%
Second compound 0.01 µM, first compound 0.03 µM
  viability, T/C: 34.2%
Second compound 0.01 µM, first compound 0.0949 µM
  viability, T/C: 41.3%
Second compound 0.01 µM, first compound 0.3 µM
  viability, T/C: 39.9%
Second compound 0.0316 µM, first compound 0.000949 µM
  viability, T/C: 127%
Second compound 0.0316 µM, first compound 0.003 µM
  viability, T/C: 65.8%
Second compound 0.0316 µM, first compound 0.00949 µM
  viability, T/C: 34.2%
Second compound 0.0316 µM, first compound 0.03 µM
  viability, T/C: 28.4%
Second compound 0.0316 µM, first compound 0.0949 µM
  viability, T/C: 39.7%
Second compound 0.0316 µM, first compound 0.3 µM
  viability, T/C: 37.7%
Second compound 0.1 µM, first compound 0.000949 µM
  viability, T/C: 143%
Second compound 0.1 µM, first compound 0.003 µM
  viability, T/C: 67.7%
Second compound 0.1 µM, first compound 0.00949 µM
  viability, T/C: 33.7%
Second compound 0.1 µM, first compound 0.03 µM
  viability, T/C: 36.8%
Second compound 0.1 µM, first compound 0.0949 µM
  viability, T/C: 39%
Second compound 0.1 µM, first compound 0.3 µM
  viability, T/C: 36.5%
Second compound 0.316 µM, first compound 0.000949 µM
  viability, T/C: 130%
Second compound 0.316 µM, first compound 0.003 µM
  viability, T/C: 67.3%
Second compound 0.316 µM, first compound 0.00949 µM
  viability, T/C: 40.2%
Second compound 0.316 µM, first compound 0.03 µM
  viability, T/C: 32.5%
Second compound 0.316 µM, first compound 0.0949 µM
  viability, T/C: 38%
Second compound 0.316 µM, first compound 0.3 µM
  viability, T/C: 34.6%
Second compound 1 µM, first compound 0.000949 µM
  viability, T/C: 140%
Second compound 1 µM, first compound 0.003 µM
  viability, T/C: 70.2%
Second compound 1 µM, first compound 0.00949 µM
  viability, T/C: 41.7%
Second compound 1 µM, first compound 0.03 µM
  viability, T/C: 38.9%
Second compound 1 µM, first compound 0.0949 µM
  viability, T/C: 36.5%
Second compound 1 µM, first compound 0.3 µM
  viability, T/C: 38.9%
